Legend:
[1] = Off-rate of 3H-biotin from streptavidin (cold biotin chase); assay type: binding; details: 50 μM cold biotin chase, 5 hours at 37° C., ± s.e.m.
Experimental: (Green, N. M. Methods in Enzymol. 184: 51-67, 1990). Dissociation was then initiated by addition of cold biotin at a final concentration of 50 μM and time-points taken over 5 hours at 37° C. 50 μL aliquots were removed and added to 200 μL 0.2M ZnSO4 chilled on ice, followed by 200 μL 0.2 M NaOH. The protein precipitate was pelleted by centrifugation at 16,500 g for 5 min, and ^3H-biotin in the supernatant was measured by liquid scintillation counting. Data were plotted as ln(fraction bound) versus time, and fit to a straight line by linear regression. Dissociation rates were deduced from the slope of the line and the equation: ln(fraction bound)=−koff(t) where fraction bound=(total ^3H-biotin−free ^3H-biotin at timepoint)/(total ^3H-biotin−free ^3H-biotin before cold biotin chase).

[2] = Electrospray ionization mass spectrometry: biotin molecules bound per streptavidin tetramer; assay type: binding; details: for # biotins (bound to each tetramer): from mass change upon addition of biotin, 30 μM protein, 200 μM biotin; for biotin binding per tetramer by mass spectrometry (in words): spectra with or without biotin
Experimental: Biospin columns (Bio-Rad) were equilibrated by spinning 5 times in 500 μL of 15 mM ammonium acetate pH 7.8 at 1000 g for 2 min. Then 30-50 μL of 30 μM protein in PBS was buffer-exchanged into 15 mM ammonium acetate pH 7.8 using the pre-equilibrated Biospin columns by spinning for 20 s at 1000 g. To ensure that PBS was completely removed, the flow-through was again buffer-exchanged with a second pre-equilibrated column for 20 s. This procedure also removed free biotin when the starting 30 μM streptavidin forms were incubated with 200 μM biotin. Less than 2 min before introducing into the mass spectrometer, the buffer-exchanged samples were diluted with a solution of 1:1 15 mM ammonium acetate pH 7.8 and 78% acetonitrile, 0.01% trifluoroacetic acid.
An Advion nanospray robot (Advion BioSystems, Ithica, N.Y.) with a back-pressure of 0.45 Psi introduced the samples into the mass spectrometer, an 8.5 Tesla custom-built Electrospray Ionisation-Fourier Transform Mass Spectrometer. To visualize the non-covalent tetramers and non-covalent biotin binding in the high m/z range, the following settings were used: Chirp rate=750 Hz, Amplitude=0.5 V p-p, Tube lens=200 V, Capillary heater 2 V, Quad filter=−20 V, Skimmer=0 V, Capillary offset=34 V, X-fer=−110 V, Leak gas=4.2×10^−5 Torr. The capillary heater was kept low and the Quad filter and Skimmer were kept either high or off to prevent subunit dissociation. The transfer was set to this low value of −110 V in order to visualize the high m/z region.
The masses were calculated manually by first determining the charge state. The final mass was determined by multiplying the observed m/z by the charge and subtracting the mass corresponding to the addition of protons to give that charge. For example, for the 15+charge state of D4 an m/z of 3534.159 was obtained. (15×3534.159)-(15×1.00727) gave a mass for this ion of 52,997 Da. This calculation was repeated for each charge state and the mean and standard deviation reported. The spectra were calibrated with tetrameric streptavidin, after its monomer mass was determined under denaturing conditions (Mr=13,271.4 Da). Average masses were predicted from the DNA sequence, using the ExPASy PeptideMass Calculator (ca.expasy.org/tools/peptide-mass.html) and assuming removal of the N-terminal formyl-Methionine.
The different tetramers were purified using a Ni-nitrilotriacetic acid (NTA) column, eluting according to the number of His6-tags with increasing concentrations of imidazole. […] The tetramer composition was further confirmed by boiling the samples before loading on SDS-PAGE, to determine the ratio of A to D subunits (FIG. 1D), and by electrospray ionization mass spectrometry. In Table 1 (Schwartz, B. L. et al., J. of the Amer. Soc. for Mass Spec. 6: 459-465, 1995) the observed mass (±s.d.), determined by Electrospray Ionization-Mass Spectrometry, is compared to the mass predicted from the sequence. From the change (±s.e.m.) upon addition of biotin (mass 244.31), we determined how many biotin molecules were bound to each tetramer.
Electrospray ionization mass spectrometry was used to characterize the number of biotin molecules bound per tetramer. Spectra of the different streptavidin tetramers with or without biotin were acquired. […] The other chimeric tetramers bound one biotin per A subunit.

Row | biotin binding per tetramer by mass spectrometry (in words) [2] | Substance | off-rate from biotin [1] | # biotins (bound to each tetramer) [2]
1 | single biotin | A1D3: Monovalent streptavidin tetramer: one His6-tagged wild-type (A) subunit and three dead (D) subunits [Tetramer A1D3] | 6.14±0.19×10^−5 s^−1 | 1
2 | No biotin binding | D4: Streptavidin tetramer with 4 dead subunits (D: N23A, S27D, S45A, SEQ ID NO:3) [Tetramer D4] | – | 0

From patent US20070105162A1, “Monovalent avidin and streptavidin compositions” (Massachusetts Institute of Technology, priority 2005, published 2007)
